# Ends that are not written are not given here.
# System: multidrug-resistant (MDR) strain of K. pneumoniae, clinical isolate
# Assay: microbe, parasite or virus in culture
# Type: cell-based, Klebsiella pneumoniae
# Details: MDR K. pneumoniae clinical isolate
substance,measurement,setting,value
WKKIKKFF-NH2 [PvAMP66],MIC,,3.51 µg/mL
same,IC50,"95% confidence interval in parentheses, read-out: IC50",15.8 µM
same,MIC,"peptides 1.56–200 µM, antibiotics 1.56–100 µM, 24 h 37 °C",25.00 µM
